Here are results for 1 compound from patent US20110039920A1, “INHIBITORS OF IKK-BETA SERINE-THERONINE PROTEIN KINASE” (CHROMA THERAPEUTICS LTD., priority 2008, published 2011).

For experiment [1], the system named is human whole blood TNFα release. Description: LPS-stimulation of human whole blood, TNF-α by ELISA. The experiment is classed as cell-based. As to conditions: inhibitor 2 hrs before LPS 100 ng/ml, 6 hrs, read-out: Inhibitor activity versus human whole blood TNFα release. The protocol: Whole blood was taken by venous puncture using heparinised vacutainers (Becton Dickinson) and diluted in an equal volume of RPMI1640 tissue culture media (Sigma). 100 μl was plated in V-bottomed 96 well tissue culture treated plates. 2 hrs after the addition of the inhibitor in 100 μl of RPMI1640 media, the blood was stimulated with LPS (E coli strain 005:B5, Sigma) at a final concentration of 100 ng/ml and incubated at 37° C. in 5% CO2 for 6 hrs. TNF-α levels were measured from cell-free supernatants by sandwich ELISA (R&D Systems #QTA00B)

In the next experiment the test system is THP-1 TNFα release. Nature of the experiment: LPS-stimulation of THP-1 cells, TNF-α by ELISA. The experiment is classed as cell-based. Conditions: Homo sapiens, inhibitor 2 hrs before LPS 1 μg/ml, 6 hrs, read-out: Inhibitor activity versus THP-1 TNFα release. The protocol: THP-1 cells were plated in 100 μl at a density of 4×10^4 cells/well in V-bottomed 96 well tissue culture treated plates and incubated at 37° C. in 5% CO2 for 16 hrs. 2 hrs after the addition of the inhibitor in 100 μl of tissue culture media, the cells were stimulated with LPS (E coli strain 005:65, Sigma) at a final concentration of 1 μg/ml and incubated at 37° C. in 5% CO2 for 6 hrs. TNF-α levels were measured from cell-free supernatants by sandwich ELISA (R&D Systems #QTA00B)

As for `C[C@H](NCc1cccc(-c2cc(C(N)=O)c(NC(N)=O)s2)c1)C(=O)OC1CCCC1` [Example 11, Cyclopentyl N-{3-[4-carbamoyl-5-(carbamoylamino)-2-thienyl]benzyl}-L-alaninate], the IC50 (in experiment [1]; in the experiment on THP-1 TNFα release) was 500 to 1000 nM throughout.
